Results: article PMC12108757, “Discovery and Characterisation of Novel Poly-Histidine-Poly-Glycine Peptides as Matrix Metalloproteinase Inhibitors” (Biomolecules, 2025)

Legend:
[1] = Circular dichroism (CD) analysis; format: physicochemical; details: 0.2 mM, 20 °C, CDNN software
Procedure: The synthetic pHpGs (0.2 mM) were analysed by CD spectroscopy to identify the secondary microstructure, respectively. Settings: scanning range of 180–260 nm, speed of 50 nm·min^−1, bandwidth of 1 nm, and a response time of 0.5 s. Secondary structure proportions (α-helices, β-sheets, β-turns, and random coils) were analysed via CDNN v2.1 software (Applied Photophysics Ltd., Leatherhead, UK).

human MMP-1 = test: MMP-1 proteinase inhibition assay (time-dependent β-casein degradation, SDS-PAGE); format: biochemical; details: for catalytic suppression of MMP-1: proteinase inhibition assay, summary in discussion; for inhibition of MMP-1 activity in hydrolysing β-casein: 0–24 h, MMP-1 pre-incubated with peptide (1:25 molar ratio), sodium phosphate buffer pH 6.5, 37 °C, 12% SDS-PAGE, Coomassie
Procedure: Proteolytic activity was assessed using β-casein (0.08 mM) as a substrate in a time-course assay (0–24 h). Enzymatic reactions were initiated by pre-incubating human MMP-1 with synthetic pHpG peptides (1:25 molar ratio) in a sodium phosphate buffer (pH 6.5) at 37 °C for 30 min. The recombinant human MMP-1 protein (rhMMP-1; ≥95% purity), obtained from MedChemExpress (Monmouth Junction, NJ, USA), was expressed in HEK293 cells as an unglycosylated form with a determined molecular weight of 49–61 kDa. The latent proenzyme requires activation via incubation with 1 mM aminophenylmercuric acetate at 37 °C for 2 h to generate the catalytically active form. Reactions were quenched with 5 mM EDTA at designated intervals, followed by electrophoretic separation on 12% SDS-PAGE and Coomassie staining. The negative control was β-casein in the absence of enzymatic catalysis, while water served as a system blank to monitor background interference.

[2] = UV-Vis spectroscopy of pHpGs and zinc–pHpG complexes; format: physicochemical; details: 0.1 mM, 200–300 nm, room temperature; for UV–visible wavelength, zinc–pHpG complex: Zn^2+ complex; for UV–visible wavelength, peptide before zinc binding: peptide alone
Procedure: Ultraviolet–visible (UV–Vis) spectrum of pHpGs and zinc–pHpG complexes (0.1 mM) were recorded using a Shimadzu UV-2450 spectrophotometer (Shimadzu Corporation, Kyoto, Japan) in the wavelength range of 200–300 nm at room temperature.

HUVECs [3] = test: Trans-well migration assay; format: cell-based, human; details: 10% FBS, hVEGF165 25 ng/mL, 24 h, 37 °C; 3.125–25 μM
Procedure: HUVECs (2 × 10^5 cells) were seeded in the upper chamber of a modified Boyden chamber system (BD Sciences, Milpitas, CA, USA). The lower chamber contained medium with 10% FBS, hVEGF165 (25 ng/mL), pHpG-H7 peptide (3.125 μM, 6.25 μM, 12.5 μM, 25 μM), or water. After 24 h incubation (37 °C, 5% CO2), migrated cells on the lower membrane surface were fixed, stained with Crystal Violet, and imaged. Cell migration was quantified using ImageJ software.

HUVECs [4] = test: Tube formation assay (Matrigel); format: cell-based, human; details: hVEGF165-stimulated, 1% FBS, 8 h, 37 °C, 3.125–25 μM
Procedure: Matrigel™ Basement Membrane Matrix (BD Bioscience, Franklin Lakes, NJ, USA) was added to a 96-well plate to a total volume of 60 μL per well and polymerised at 37 °C with 5% CO2 for 30 min to form a gel layer. HUVECs (2 × 10^4 cells/well) in the medium with 1% FBS were seeded. Different concentrations of pHpG-H7 peptide (3.125 μM, 6.25 μM, 12.5 μM, 25 μM) were added to each well and incubated for 8 h (37 °C, 5% CO2). Results were detected by phase-contrast microscope (Olympus, Tokyo, Japan) and photographed. At least three representative fields from each well were selected to count the number of branching points.

HUVECs [5] = test: Scratch wound healing assay; format: cell-based, human; details: hVEGF165 25 ng/mL stimulated, serum-free, 12 h, 37 °C; across all groups 3.125–25 μM
Procedure: Human umbilical vein endothelial cells (HUVECs) were procured from the Shanghai Institute of Biochemistry and Cell Biology (Chinese Academy of Sciences, China). For the scratch wound healing assay, HUVECs were seeded in 24-well plates at a density of 1.2 × 10⁵ cells/well and cultured to form confluent monolayers. A linear wound was created by scraping with a sterile pipette tip. Serum-free Dulbecco’s modified Eagle medium containing 25 ng/mL of human vascular endothelial growth factor 165 (hVEGF165) was supplied, followed by the addition of either the pHpG-H7 peptide (3.125 μM, 6.25 μM, 12.5 μM, 25 μM) or water as a control. Cells were incubated for 12 h (37 °C, 5% CO2), and images were captured at 0 h (initial wound area) and 12 h. Wound healing was quantified using ImageJ 1.53t software, with a migration rate calculated as: Mobility (%) = (initial wound area–12 h residual area)/initial wound area × 100%.

metalloproteinase = details: ref [10]; cited from earlier work
Procedure: Time-dependent β-casein degradation mediated by MMP-1 was analysed. In the absence of pHpG peptides, β-casein was progressively degraded and fully hydrolysed within 24 h (Figure 4A).

SVMP = details: ref [10]; cited from earlier work
Description: (§1) In the preceding investigation, we reported the presence of snake venom metalloproteinase in A. squamigera’s venom, which belongs to the Pep_M12B_propeptide family. […] This hypothesis is strongly supported by findings ...

[6] = test system: venom-induced haemorrhage; details: ref [10]; cited from earlier work
Description: as §1

Sequence	Unorderd (random coil) [1]	α-Helix [1]	β-Strand [1]	β-Turn [1]	catalytic suppression of MMP-1 (human MMP-1)	inhibition of MMP-1 activity in hydrolysing β-casein (human MMP-1; β-casein 0.08 mM, 30 min)	UV–visible wavelength, zinc–pHpG complex [2]	UV–visible wavelength, peptide before zinc binding [2]	HUVECs migration (HUVECs [3])	anti-angiogenesis effect (tube formation) (HUVECs [4])	wound closure capability of HUVECs (HUVECs [5])	relative inhibitory effect on MMP-1 among the pHpG peptides (human MMP-1; comparison of pHpG-H5, pHpG-H7, pHpG-H9, β-casein, SDS-PAGE)	earliest time of suppression of MMP-1 activity (human MMP-1; β-casein 0.08 mM, pre-incubation 1:25 molar ratio, pH 6.5, 37 °C, 30 min, SDS-PAGE, 'as early as')	metalloproteinase-mediated casein hydrolysis (metalloproteinase)	SVMP activity (SVMP)	venom-induced haemorrhage [6]
EDDHHHHHGVGGGGGGGGGG [pHpG-H5]	29.2%	12.1%	40.6%	21.6%	potent catalytic suppression	significantly inhibited	216 nm	214 nm								
EDDHHHHHHHGVGGGGGGGGGG [pHpG-H7]	46.4%	6.2%	13.6%	29.4%	potent catalytic suppression	significantly inhibited	215 nm	212 nm	inhibited by pHpG-H7 in a dose-dependent manner	anti-angiogenesis effects in a dose-dependent manner	significantly impaired	most pronounced inhibitory effect	≤ 0.5 h			
EDDHHHHHHHHHGVGGGGGGGGGG [pHpG-H9, Atheris pHpG-1 is equivalent to pHpG-H9, reference compound]	47.5%	6.3%	11.7%	30.7%	potent catalytic suppression	significantly inhibited	218 nm	210 nm						inhibits	inhibition of SVMP activity	alleviation of venom-induced haemorrhage
